In patent publication US20240165202A1, “USES OF FGF21 POLYPEPTIDES AND FUSION POLYPEPTIDES THEREOF” (SUNSHINE LAKE PHARMA CO., LTD., priority 2021, published 2024):

Assays:
[1] = test system: ob/ob mice nonalcoholic steatohepatitis (NASH) model; assay: ob/ob mice high-fat diet NASH model, 6 weeks dosing: serum lipids, liver weight, liver function, liver lipids; type: in vivo; conditions: 10 nmol/kg
Protocol: (§1) 70 Male ob/ob mice (Changzhou Cavens Laboratory Animal Co., Ltd.) weighed about 43-45 g were fed with high-fat diet (D12492, Research Diets, Inc., New Brunswick, NJ) for 9 weeks to establish a nonalcoholic steatohepatitis (NASH) model. 3 Weeks after HFD feeding, the therapeutic efficacy of the compounds dual target fusion protein 1 #, Fc-FGF21 (single target 1 #) and Dulaglutide were tested after 6 weeks of dosing. The experimental animals were randomly divided into 5 groups according to body weight and blood glucose after […] of HFD feeding: the model group (group-1, n=10), the dual target fusion protein 1 #-3 nmol/kg group (group-2, n=10); the dual target fusion protein 1 #-10 nmol/kg group (group-3, […]); Fc-FGF21-10 nmol/kg group (group-4, n=10); Dulaglutide-10 nmol/kg (group-5, n=10). The model group was administrated PBS. The groups of dual target fusion protein 1 #, Fc-FGF21, and Dulaglutide were administrated twice a week for a total of 6 weeks. Feed intake, water intake and body weight of animals were recorded every two days after the start of HFD feeding until the end of the experiment. Blood glucose was measured at 0, 2, 7, 24, 48, 72 hours after the first administration, and then twice a week. At the end of the experiment, the animals were fasted to detect fasting blood glucose.

[2] = test system: ob/ob mice nonalcoholic steatohepatitis (NASH) model; assay: ob/ob mice high-fat diet NASH model, 6 weeks dosing: blood glucose and body weight; type: in vivo; conditions: 10 nmol/kg
Protocol: as §1

[3] = test system: ob/ob mice nonalcoholic steatohepatitis (NASH) model; assay: ob/ob mice high-fat diet NASH model, 6 weeks dosing: liver pathological scores; type: in vivo; conditions: 10 nmol/kg twice a week, Mean ± SEM, n = 10
Protocol: as §1

[4] = test system: high-fat-induced C57BL/6 mice model; assay: High-fat diet induced C57BL/6 mice, 16 weeks dosing: random blood glucose, IPGTT, fasting glucose, insulin, HOMA-IR, body weight, fat mass; type: in vivo
From the text: (§2) After 16 weeks of high-fat diet feeding (D12492, Research Diets, Inc., New Brunswick, NJ), C57BL/6 mice (purchased from Hunan SJA Laboratory Animal Co., Ltd.) were randomly divided into vehicle group or treatment group according to the measured blood glucose and body weight. The study included control group with normal diet, high-fat diet Model group was administrated with vehicle PBS, subcutaneous injection of semaglutide once a day (QD) 10 nmol/kg, dual target 1 # was administrated twice weekly (BIW), the low dose was 3 nmol/kg and the high dose was 10 nmol/kg, 7 animals in each group. The drug groups were administrated the corresponding drugs according to the administration frequency for 16 consecutive weeks, and the high-fat diet was continued during the administration period until the end of the experiment. The random blood glucose, body weight and intraperitoneal glucose tolerance IPGTT of mice were monitored.
(§3) At the end of the experiment of Example 4, that is, the 16th week of administration, the animals were fasted overnight and could drink water. After the animals were weighed, the orbital blood was collected, serum was separated, and serum lipids (TG (triglyceride), TC (total cholesterol)) and liver function indexes ALT (alanine aminotransferase)/AST (aspartate aminotransferase) were detected by an automatic biochemical analyzer. Serum insulin levels were detected by Elisa kit, and the HOMA-IR index was calculated according to the formula, that is, HOMA-IR=fasting blood glucose (blood glucose value at 0 time of IPGTT in the 16th week)×fasting insulin/22.5. After the blood was collected, the liver, subcutaneous fat, epididymal fat and perirenal fat were dissected and weighed. About 40-60 mg of liver tissue was weighed and put into a homogenization tube, 1 mL of absolute ethanol was added for homogenization, then the homogenate was taken and centrifuged at 4° C., 3,500 rpm for 10 min. The supernatant was taken, and the concentrations of TG and TC in the supernatant were detected by an automatic biochemical analyzer, and then the contents of TG and TC were calculated according to the weighed liver weight

[5] = test system: high-fat diet induced C57BL/6 mice model; assay: High-fat diet induced C57BL/6 mice: liver histopathology NAS and fibrosis scores; type: in vivo; conditions: 10 nmol/kg (semaglutide QD, dual target 1# BIW), 16 weeks, Mean ± SD, n = 6-7
From the text: as §2
The left lobe of the liver obtained by dissection in Example 5 was immersed in a 50 mL centrifuge tube filled with formalin to prepare liver disease sections, and the formalin liver tissue was subjected to wax block making, sectioning, HE staining, and HE staining slices were mailed to Suzhou KCl Co., Ltd. for NAS scoring; fibrosis was assessed by Sirius red staining, and the scores were scored according to the severity of fibrosis, with a score of 1-3. Liver histopathological changes were observed under light microscope and NAS/fibrosis scores were performed.

[6] = test system: high-fat-induced C57BL/6 mice model; assay: High-fat diet induced C57BL/6 mice: serum lipids, ALT/AST, liver weight, liver homogenate lipids; type: in vivo; conditions: 16th week of administration
From the text: as §2, §3

[7] = mouse models; cited from earlier work
[8] = 10 nmol/kg (semaglutide QD, dual target 1# BIW), 16 weeks, Mean ± SD, n = 6-7

Molecule: Dulaglutide
- level of serum TG compared with the model group [1]: significantly decreased
- serum TC level compared with the model group [1]: not significantly decreased
- weight growth rate compared with the model group ([2]; D1 to D43): decreased significantly
- average weight loss rate ([2]; D1 to D43, p<0.01 or 0.001): 8.9%
- blood glucose level versus model group ([2]; after 5 days, P>0.05): less different from that of the model group
- Inflammatory infiltration Scores [3]: 0.57 ± 0.13
- Liver ballooning Scores [3]: 0.43 ± 0.26
- NAS scores [3]: 3.80 ± 0.41
- Steatosis Scores [3]: 2.80 ± 0.07

Molecule: Semaglutide
- Epididymal fat [4, 8]: 1.0 ± 0.5 g
- Perirenal fat [4, 8]: 0.6 ± 0.6 g
- Subcutaneous fat [4, 8]: 0.9 ± 1.0 g
- Total Fat [4, 8]: 2.6 ± 2.1 g
- weight loss ([4]; 10 nmol/kg, 16 weeks): 24.3%
- blood glucose AUCO-72h after the first administration, compared with the Model group ([4]; 10 nmol/kg, p<0.05): significantly reduce
- body weight growth rate compared with the Model group ([4]; 16 weeks, P<0.001): significantly reduce
- insulin level compared with Model ([4]; end of experiment, serum, P<0.001): significantly reduce
- HOMA-IR index compared with Model ([4]; end of experiment, P<0.001): significantly reduce
- IPGTT: blood glucose after glucose administration and area under the blood glucose curve, compared with Model ([4]; weeks 2, 8 and 16, 30-90 min or 15-90 min after glucose): significantly reduce
- NAS total score [5]: 0.0 ± 0.0
- Fibrosis Manual Score ([5]; Sirius red, score 1-3): 1.5 ± 0.5
- Balloon degeneration ([5]; score): 0.0 ± 0.0
- Inflammation ([5]; score): 0.0 ± 0.0
- Liver steatosis ([5]; score): 0.0 ± 0.0
- TG in liver homogenate compared with the Model [6]: significantly reduce
- liver absolute weight compared with the Model [6]: significantly reduce
- serum ALT level compared with the Model [6]: significantly reduce
- serum AST level compared with the Model [6]: significantly reduce
- serum TC compared with Model [6]: significantly reduce
- serum TG compared with Model [6]: significantly reduce

B1: FGF21: member of the FGF family (fibroblast growth factors); native FGF21 with short half-life (protein, UniProt Q9NSA1 29-209, looked up)
Fibroblast growth factor 21: HPIPDSSPLLQFGGQVRQRYLYTDDAQQTEAHLEIREDGTVGGAADQSPESLLQLKALKPGVIQILGVKTSRFLCQRPDGALYGSLHFDPEACSFRELLLEDGYNVYQSEAHGLPLHLPGNKSPHRDPAPRGPARFLPLPGLPPALPEPPGILAPQPPDVGSSDPLSMVGPSQGRSPSYAS
- half-life [7]: about 1 h
